From BindingDB's records for doi:10.1021/jm060314i (Cnrs, 2006)
Where a name gives a salt, the structure may show the parent alone.

Each molecule was assayed against 5L hepatoma cell line (Rattus norvegicus) (assay: Survival of rat 5L hepatoma cells after 48 hrs by MTS reduction assay).

Compound	IC50
Oc1[nH]c2c(Br)cccc2c1C1=Nc2ccccc2/C1=N\OCCN1CCCC1 [(2'Z,3'E)-7-bromoindirubin-3'-[O-(2-pyrrolidin-1-ylethyl)oxime] hydrochloride]	> 30 µM
CN(C)CCO/N=C1/C(c2c(O)[nH]c3c(Br)cccc23)=Nc2ccccc21 [(2'Z,3'E)-7-bromoindirubin-3'-[O-(2-dimethylaminoethyl)oxime]]	25 µM
CN(C)CCO/N=C1/C(c2c(O)[nH]c3c(Br)cccc23)=Nc2ccccc21 [(2'Z,3'E)-7-bromoindirubin-3'-[O-(2-dimethylaminoethyl)oxime] hydrochloride]	> 30 µM
